Reference: article PMC9739695, “Water-Soluble Salts Based on Benzofuroxan Derivatives—Synthesis and Biological Activity” (International Journal of Molecular Sciences, 2022)
Counter-ions that a name gives are not always drawn. Like-named read-outs stand apart in the source and are kept apart here. Blank lines part the entries; values can stand above or below the compound they belong to.

Assays:
[1] = tested on: Hek 293 (human embryonic kidneys); test: Cell viability, MTT test, normal cell line; type: cell-based; settings: HEK293, Hek 293 normal cells, test range 0.1 to 100 μM, read-out: IC50 (concentration causing 50% inhibition of cell population growth)
Protocol: (§1) In this work, the cytotoxic potential of the water-soluble salts based on benzofuroxan was determined by the effect of compounds on the survival of the cell tumor origin cultures (SH-SY5Y, Hep2, A549, HeLa) using the MTT test. To understand how the synthesized compounds can influence the healthy microenvironment in the body, the effect of substances on the viability of a normal Hek 293 cell culture was additionally evaluated.
(§2) Human cell cultures of tumor origin—SH-SY5Y (neuroblastoma), HeLa (cervical tumor), Hep-2 (larynx carcinoma), A549 (adenocarcinomic human alveolar basal epithelial cells)—and normal cell line Hek 293 (human embryonic kidneys), provided by the Laboratory of Tumor Cell Genetics of the Scientific Research Institute of Carcinogenesis, N.N. Blokhin National Medical Research Center of Oncology, as well as the Institute of Cytology of the Russian Academy of Sciences, were grown in a nutrient medium DMEM (PanEco, Moscow, Russia) and MEM (PanEco, Moscow, Russia), containing fetal bovine serum (10% by volume) (ThermoFisher Scientific, Paisley, UK), Glutamax (2 mM) (Gibco, Scotland, UK), and penicillin-streptomycin (1% by volume) (PanEco, Moscow, Russia). The cultivation was carried out at 37 °C in a humidified CO2 atmosphere (5%).
(§3) Cell viability was determined by MTT test. Cells were seeded in a 96-well plate in the amount of 1 × 10^4 cells/200µLof complete nutrient medium and cultured at 37 °C in CO2 (5%). After 24 h of incubation, various concentrations of test compounds in the range from 0.1 to 100 μM, were added to the cell cultures, and then the cells were cultured under the same conditions for 24 and 72 h. For each concentration, the experiment was carried out in triplicate.
(§4) All compounds were dissolved in DMSO, then diluted with the medium to the required concentration. […] The DMSO was also added to the control wells in a volume of 1%. After the incubation time, MTT (3-(4,5-dimethylthiazol-2-yl)-2,5-diphenyltetrazolium bromide, 5 mg/mL) was added to each well and plates were additionally incubated for 2 h (until the characteristic color appeared).
(§5) Using a plate analyzer (Cytation3, BioTech Instruments Inc., Winooski, VT, USA), the optical density was determined at 530 nm. The concentration value causing 50% inhibition of cell population growth (IC50) was determined from dose-dependent curves.

[2] = tested on: A549 (adenocarcinomic human alveolar basal epithelial cells); test: Cell viability, MTT test; type: cell-based; settings: test range 0.1 to 100 μM, read-out: IC50 (concentration causing 50% inhibition of cell population growth)
Protocol: as §1, §2, §3, §4, §5

HeLa (cervical tumor) = test: Cell viability, MTT test; type: cell-based; settings: Homo sapiens, test range 0.1 to 100 μM, read-out: IC50 (concentration causing 50% inhibition of cell population growth)
Protocol: as §1, §2, §3, §4, §5

Hep-2 (larynx carcinoma) = test: Cell viability, MTT test; type: cell-based; settings: Homo sapiens, HEp-2, test range 0.1 to 100 μM, read-out: IC50 (concentration causing 50% inhibition of cell population growth)
Protocol: as §1, §2, §3, §4, §5

SH-SY5Y (neuroblastoma) = test: Cell viability, MTT test; type: cell-based, Human; settings: Homo sapiens, SH-SY5Y, test range 0.1 to 100 μM, read-out: IC50 (concentration causing 50% inhibition of cell population growth)
Protocol: as §1, §2, §3, §4, §5

alfalfa seeds = test: Pre-sowing seed treatment, sowing qualities of alfalfa seeds; type: in vivo; settings: for germination energy / laboratory germination: control 76
Protocol: (§6) When evaluating the effectiveness of treatment of wheat, alfalfa, barley, rice, and sorghum seeds as fungicidal and bactericidal agents with preparation compounds at concentrations of 10, 20, and 40 mmol, their effect on the suppression of seed infection was evaluated.
(§7) […] The sowing qualities were evaluated (germination energy for 3–4 days, laboratory germination for 7–8 days) according to GOST 12038-84 [60]. Sowing qualities of seeds were determined in wet chambers. According to the sample, 50 seeds were taken in 4-fold repetition.

barley seeds = test: Pre-sowing seed treatment, sowing qualities of barley seeds; type: in vivo; settings: for germination energy / laboratory germination: control 95.2
Protocol: as §6, §7

sorghum seeds = test: Pre-sowing seed treatment, sowing qualities of sorghum seeds; type: in vivo; settings: for germination energy: control 52.3; for laboratory germination: control 57
Protocol: as §6, §7

rice seeds = test: Pre-sowing seed treatment, sowing qualities of rice seeds; type: in vivo; settings: for germination energy: control 71.4; for laboratory germination: control 95.2
Protocol: as §6, §7

wheat seeds = test: Pre-sowing seed treatment, sowing qualities of wheat seeds; type: in vivo; settings: for germination energy: control 82; for laboratory germination: control 85.7
Protocol: as §6, §7

[3] = tested on: fungal microflora (mushrooms) on alfalfa seeds; test: Growth of fungal microflora on treated alfalfa seeds; type: cell-based
Protocol: During phytopathological analyses of agricultural crops, the species composition of fungal and bacterial microflora was established. Laboratory studies were carried out on two nutrient media potato-agar (ingredients: potatoes—200 g; agar-agar—20 g; distilled water—1000 mL.) and potato-dextrose agar (ingredients: potatoes—200 g;dextrose—20 g; agar-agar—20 g; distilled water—1000 mL), according to the guidelines.
When evaluating the effectiveness of treatment of wheat, alfalfa, barley, rice, and sorghum seeds as […], their effect on the suppression of seed infection was evaluated.

melting point: 140 to 141 °C
Structure (SMILES): O=[N+]([O-])c1c(Cl)cc2c(no[n+]2[O-])c1NCCN1CCOCC1 [3d, 6-chloro-4-(2-morpholinoethylamino)-5-nitrobenzo[c][1,2,5]oxadiazole 1-oxide]

melting point: > 300 °C (dec.)
Structure (SMILES): CN(C)Cc1ccc(Nc2c([N+](=O)[O-])c(Cl)cc3c2no[n+]3[O-])cc1 [3c, 6-chloro-4-(4-((dimethylamino)methyl)phenylamino)-5-nitrobenzo[c][1,2,5]oxadiazole 1-oxide]

IC50 (HeLa (cervical tumor); incubation 24 h): 46.1 ± 0.56 µM
IC50 (HeLa (cervical tumor); incubation 72 h): 38.1 ± 1.21 µM
IC50 (Hep-2 (larynx carcinoma); Hep2, incubation 24 h): 97 ± 2.08 µM
IC50 (Hep-2 (larynx carcinoma); Hep2, incubation 72 h): 93.1 ± 2.3 µM
IC50 (SH-SY5Y (neuroblastoma); incubation 24 h): 45.2 ± 2.43 µM
IC50 (SH-SY5Y (neuroblastoma); incubation 72 h): 32.1 ± 1.41 µM
Structure (SMILES): CN(C)Cc1cccc(Nc2c([N+](=O)[O-])c(Cl)cc3c2no[n+]3[O-])c1 [4b, 6-chloro-4-(3-((dimethylammonio)methyl)phenylamino)-5-nitrobenzo[c][1,2,5]oxadiazole 1-oxide chloride]
IC50 ([1]; incubation 24 h): 35 ± 1.35 µM
IC50 ([1]; incubation 72 h): 27.2 ± 2.5 µM
IC50 ([2]; A549, incubation 24 h): 99.2 ± 3.38 µM
IC50 ([2]; A549, incubation 72 h): 90 ± 2.04 µM

melting point: 88 to 89 °C
Structure (SMILES): O=[N+]([O-])c1c(Cl)cc2c(no[n+]2[O-])c1NCCN1CCCCC1 [3f, 6-chloro-5-nitro-4-(2-(piperidin-1-yl)ethylamino)benzo[c][1,2,5]oxadiazole 1-oxide]

melting point: 125 to 126 °C (dec.)
IC50 (HeLa (cervical tumor); incubation 24 h): 40.2 ± 2.73 µM
IC50 (HeLa (cervical tumor); incubation 72 h): 32.9 ± 0.56 µM
IC50 (Hep-2 (larynx carcinoma); Hep2, incubation 24 h): 98.5 ± 2.54 µM
IC50 (Hep-2 (larynx carcinoma); Hep2, incubation 72 h): 90.1 ± 3.1 µM
IC50 (SH-SY5Y (neuroblastoma); incubation 24 h): 44 ± 1.09 µM
IC50 (SH-SY5Y (neuroblastoma); incubation 72 h): 35.1 ± 3.85 µM
Structure (SMILES): CN(C)Cc1ccccc1Nc1c([N+](=O)[O-])c(Cl)cc2c1no[n+]2[O-].Cl [4a, 6-chloro-4-(2-((dimethylammonio)methyl)phenylamino)-5-nitrobenzo[c][1,2,5]oxadiazole 1-oxide chloride]
sowing qualities of seeds compared with control (alfalfa seeds; 10 mmol): higher than controls
germination energy (alfalfa seeds; 10 mmol): 83%
laboratory germination (alfalfa seeds; 10 mmol): 84.5%
sowing qualities of seeds compared with control (alfalfa seeds; 50 mmol): higher than controls
germination energy (alfalfa seeds; 50 mmol): 78%
laboratory germination (alfalfa seeds; 50 mmol): 79.5%
IC50 ([1]; incubation 24 h): 38.62 ± 0.1 µM
IC50 ([1]; incubation 72 h): 16.1 ± 1.86 µM
sowing qualities of seeds compared with control (barley seeds; 10 mmol): higher than control
germination energy (barley seeds; 10 mmol): 96%
laboratory germination (barley seeds; 10 mmol): 99%
sowing qualities of seeds compared with control (barley seeds; 50 mmol): higher than control
germination energy (barley seeds; 50 mmol): 95%
laboratory germination (barley seeds; 50 mmol): 97.5%
germination energy (sorghum seeds; 10 mmol): 47.5%
laboratory germination (sorghum seeds; 10 mmol): 49.5%
sowing qualities of seeds compared with control (sorghum seeds; 50 mmol): at the control level
germination energy (sorghum seeds; 50 mmol): 52.5%
laboratory germination (sorghum seeds; 50 mmol): 56.5%
sowing qualities of seeds compared with control (rice seeds; 10 mmol): better results than the control
germination energy (rice seeds; 10 mmol): 96%
laboratory germination (rice seeds; 10 mmol): 96.5%
sowing qualities of seeds compared with control (rice seeds; 50 mmol): better results than the control
germination energy (rice seeds; 50 mmol): 99%
laboratory germination (rice seeds; 50 mmol): 99%
sowing qualities of seeds compared with control (wheat seeds; 10 mmol): higher than in the case of controls
germination energy (wheat seeds; 10 mmol): 97%
laboratory germination (wheat seeds; 10 mmol): 96.5%
sowing qualities of seeds compared with control (wheat seeds; 50 mmol): higher than in the case of controls
germination energy (wheat seeds; 50 mmol): 95%
laboratory germination (wheat seeds; 50 mmol): 96.5%
effect on fungal microflora ([3]; 10 mmol): positive effect on the suppression of fungal microflora
effect on fungal microflora ([3]; 50 mmol): positive effect on the suppression of fungal microflora
IC50 ([2]; A549, incubation 24 h): 95.5 ± 1.01 µM
IC50 ([2]; A549, incubation 72 h): 92.1 ± 3.58 µM

melting point: 118 to 119 °C
Structure (SMILES): CN(C)Cc1cccc(Nc2c([N+](=O)[O-])c(Cl)cc3c2no[n+]3[O-])c1 [3b, 6-chloro-4-(3-((dimethylamino)methyl)phenylamino)-5-nitrobenzo[c][1,2,5]oxadiazole 1-oxide]

melting point: 186 to 187 °C
Structure (SMILES): O=[N+]([O-])c1c(Cl)cc2c(no[n+]2[O-])c1NCCN1CCOCC1 (as salt: chloride) [4d, 6-chloro-4-(2-(morpholino-4-ium)ethylamino)-5-nitrobenzo[c][1,2,5]oxadiazole 1-oxide chloride]

melting point: 106 to 107 °C
Structure (SMILES): Cl.O=[N+]([O-])c1c(Cl)cc2c(no[n+]2[O-])c1NCCN1CCCCC1

melting point: 152 to 153 °C (dec.)
Structure (SMILES): CN(C)Cc1ccccc1Nc1c([N+](=O)[O-])c(Cl)cc2c1no[n+]2[O-] [3a, 6-chloro-4-(2-((dimethylamino)methyl)phenylamino)-5-nitrobenzo[c][1,2,5]oxadiazole 1-oxide]
